For one experiment, the system named is HOSE or FTE cells. The experiment is described as follows: Colony formation assay in normal HOSE and FTE cells. The class given is cell-based, human. The note with it: 10 μM GSK126, colony formation. On the procedure: FIG. 33 illustrates relative growth of the indicated HOSE, FTE, and EOC cancer cell lines with high or low CARM1 expression treated with 10 μM GSK126 or vehicle in a colony formation assay as determined by NIH Image J quantification.
500 to 5,000 cell were plated into a 24 well tissue culture plate and treated with the indicated compounds. Medium was changed every three days with appropriate drug doses for 12 days or until control wells became confluent. Colonies were washed twice with PBS and fixed with 10% methanol and 10% acetic acid in distilled water. Fixed colonies were stained with 0.005% crystal violet. Integrated density was measured using NIH ImageJ software.

Experiment [1] concerns parental and CARM1 knockout A1847 cells, CARM1 high OVCAR10 cells. Nature of the experiment: Apoptosis markers (Annexin V, cleaved caspase 3, cleaved PARP). The note with it: 10 μM GSK126, 7 days; CARM1-dependent manner. The class given is cell-based, human. The protocol: FIG. 37 illustrates control parental and CARM1 knockout A1847 cells were treated with 10 μM GSK126 or vehicle for 7 days. Percentage of Annexin V positive apoptotic cells was quantified. *p<0.001 and #p>0.05.
FIG. 38 illustrates levels of cleaved caspase 3 and cleaved PARP in control parental and CARM1 knockout A1847 cells treated with 10 μM GSK126 for 7 days. Expression of 3-actin was used as a loading control.
FIG. 39A illustrates the expression of apoptosis markers cleaved in CARM1 high OVCAR10 cells as a result of treatment with GSK126. CARM1 high OVCAR10 cells were treated with 10 μM GSK126 or vehicle control for 7 days. The expression of apoptosis markers cleaved caspase 3 and cleaved PARP were determined by immunoblot. Expression of β-actin was used as a loading control.
Phosphatidylserine externalization was detected using an Annexin V staining kit (Millipore) following the manufacturer's instructions. Annexin V-positive cells were detected using the Guava System and analyzed with the Guava Nexin software Module (Millipore).

These results are taken from US12036222B2, “Methods of treating cancers overexpressing CARM1 with EZH2 inhibitors and a PARP inhibitor” (The Wistar Institut of Anatomy and Biology, priority 2018, dated 2024).

The structures appear in SMILES notation. Entries after “also recorded” stand apart in the source; their conditions may differ.

With `CC[C@H](C)n1cc(C)c2c(C(=O)NCc3c(C)cc(C)[nH]c3=O)cc(-c3ccc(N4CCNCC4)nc3)cc21` [GSK126, (S)-1-(sec-butyl)-N-((4,6-dimethyl-2-oxo-1,2-dihydropyridin-3-yl)methyl)-3-methyl-6-(6-(piperazin-1-yl)pyridin-3-yl)-1H-indole-4-carboxamide], in the experiment with HOSE or FTE cells, the “growth of HOSE or FTE cells” value is recorded as “did not affect the growth; also recorded: didn't affect the growth”. Also, the markers of apoptosis result in experiment [1] was “induced”.
